Results reported in ChEMBL document CHEMBL3297661, “1-Substituted-5-[(3,5-dinitrobenzyl)sulfanyl]-1H-tetrazoles and their isosteric analogs: A new class of selective antitubercular agents active against drug-susceptible and multidrug-resistant mycobacteria” (Eur J Med Chem, 2014).
pIC50: −log10 of the molar value. Converted amounts (≈) assume the structure as drawn.

Tests used:
[1] = system: Pseudomonas aeruginosa; experiment: Antibacterial activity against Pseudomonas aeruginosa ATCC 9027 after 48 hrs by broth microdilution method; type: functional; conditions: ATCC 9027, 48 h
[2] = system: Candida albicans; experiment: Antifungal activity against Candida albicans ATCC 44859 after 24 hrs by broth microdilution method; type: functional; conditions: ATCC 44859, 24 h
[3] = system: Candida albicans; experiment: Antifungal activity against Candida albicans ATCC 44859 after 48 hrs by broth microdilution method; type: functional; conditions: ATCC 44859, 48 h
[4] = system: Candida tropicalis; experiment: Antifungal activity against Candida tropicalis 156 after 24 hrs by broth microdilution method; type: functional; conditions: Candida tropicalis, 156, 24 h
[5] = system: Candida tropicalis; experiment: Antifungal activity against Candida tropicalis 156 after 48 hrs by broth microdilution method; type: functional; conditions: Candida tropicalis, 156, 48 h
[6] = system: Pichia kudriavzevii; experiment: Antifungal activity against Candida krusei E28 after 24 hrs by broth microdilution method; type: functional; conditions: E28, 24 h
[7] = system: Pichia kudriavzevii; experiment: Antifungal activity against Candida krusei E28 after 48 hrs by broth microdilution method; type: functional; conditions: E28, 48 h
[8] = system: Nakaseomyces glabratus; experiment: Antifungal activity against Candida glabrata 20/I after 24 hrs by broth microdilution method; type: functional
[9] = system: Nakaseomyces glabratus; experiment: Antifungal activity against Candida glabrata 20/I after 48 hrs by broth microdilution method; type: functional
[10] = system: Trichosporon asahii; experiment: Antifungal activity against Trichosporon asahii 1188 after 24 hrs by broth microdilution method; type: functional; conditions: Trichosporon asahii, 1188, 24 h
[11] = system: Trichosporon asahii; experiment: Antifungal activity against Trichosporon asahii 1188 after 48 hrs by broth microdilution method; type: functional; conditions: Trichosporon asahii, 1188, 48 h
[12] = system: Aspergillus fumigatus; experiment: Antifungal activity against Aspergillus fumigatus 231 after 24 hrs by broth microdilution method; type: functional, organism-based; conditions: Aspergillus fumigatus, 231, 24 h
[13] = system: Aspergillus fumigatus; experiment: Antifungal activity against Aspergillus fumigatus 231 after 48 hrs by broth microdilution method; type: functional, organism-based; conditions: Aspergillus fumigatus, 231, 48 h
[14] = system: Lichtheimia corymbifera; experiment: Antifungal activity against Absidia corymbifera 272 after 24 hrs by broth microdilution method; type: functional, organism-based; conditions: Lichtheimia corymbifera, 272, 24 h
[15] = system: Lichtheimia corymbifera; experiment: Antifungal activity against Absidia corymbifera 272 after 48 hrs by broth microdilution method; type: functional, organism-based; conditions: Lichtheimia corymbifera, 272, 48 h
[16] = system: Trichophyton mentagrophytes; experiment: Antifungal activity against Trichophyton mentagrophytes 445 after 72 hrs by broth microdilution method; type: functional, organism-based; conditions: Trichophyton mentagrophytes, 445, 72 h
[17] = system: Trichophyton mentagrophytes; experiment: Antifungal activity against Trichophyton mentagrophytes 445 after 120 hrs by broth microdilution method; type: functional, organism-based; conditions: Trichophyton mentagrophytes, 445, 120 h
[18] = Cytotoxicity against human HeLa cells assessed as cell viability at 30 uM after 48 hrs by MTT assay; type: cell-based; conditions: read-out: Activity
[19] = Cytotoxicity against human HuH7 cells assessed as cell viability at 30 uM after 48 hrs by MTT assay; type: cell-based, Huh-7; conditions: read-out: Activity
[20] = Cytotoxicity against human HepG2 cells assessed as cell viability at 30 uM after 48 hrs by MTT assay; type: cell-based; conditions: read-out: Activity
[21] = Cytotoxicity against MDCK2 cells assessed as cell viability at 30 uM after 48 hrs by MTT assay; type: cell-based, Canis lupus familiaris, MDCK-II; conditions: dog, read-out: Activity
[22] = system: HeLa; experiment: Cytotoxicity against human HeLa cells assessed as reduction in cell viability after 48 hrs by MTT assay; type: cell-based
[23] = Cytotoxicity against human HuH7 cells assessed as reduction in cell viability after 48 hrs by MTT assay; type: cell-based; conditions: Huh-7, 48 h
[24] = Cytotoxicity against MDCK2 cells assessed as reduction in cell viability after 48 hrs by MTT assay; type: cell-based; conditions: Canis lupus familiaris, MDCK-II
[25] = system: HepG2; experiment: Cytotoxicity against human HepG2 cells assessed as reduction in cell viability after 48 hrs by MTT assay; type: cell-based; conditions: HepG2, 48 h
[26] = system: Mycobacterium tuberculosis; experiment: Antimycobacterial activity against Mycobacterium tuberculosis CNCTC My 331/88 after 14 days by micromethod; type: functional; conditions: CNCTC My 331/88, 336 h
[27] = system: Mycobacterium tuberculosis; experiment: Antimycobacterial activity against Mycobacterium tuberculosis CNCTC My 331/88 after 21 days by micromethod; type: functional; conditions: CNCTC My 331/88, 504 h
[28] = system: Mycobacterium avium; experiment: Antimycobacterial activity against Mycobacterium avium CNCTC My 330/88 after 14 days by micromethod; type: functional; conditions: CNCTC My 330/88, 336 h
[29] = system: Mycobacterium avium; experiment: Antimycobacterial activity against Mycobacterium avium CNCTC My 330/88 after 21 days by micromethod; type: functional; conditions: CNCTC My 330/88, 504 h
[30] = system: Mycobacterium kansasii; experiment: Antimycobacterial activity against Mycobacterium kansasii CNCTC My 235/80 after 7 days by micromethod; type: functional; conditions: CNCTC My 235/80, 168 h
[31] = system: Mycobacterium kansasii; experiment: Antimycobacterial activity against Mycobacterium kansasii CNCTC My 235/80 after 14 days by micromethod; type: functional; conditions: CNCTC My 235/80, 336 h
[32] = system: Mycobacterium kansasii; experiment: Antimycobacterial activity against Mycobacterium kansasii CNCTC My 235/80 after 21 days by micromethod; type: functional; conditions: CNCTC My 235/80, 504 h
[33] = system: Mycobacterium kansasii; experiment: Antimycobacterial activity against Mycobacterium kansasii 6509/96 after 7 days by micromethod; type: functional; conditions: 6509/96, 168 h
[34] = system: Mycobacterium kansasii; experiment: Antimycobacterial activity against Mycobacterium kansasii 6509/96 after 14 days by micromethod; type: functional; conditions: 6509/96, 336 h
[35] = system: Mycobacterium kansasii; experiment: Antimycobacterial activity against Mycobacterium kansasii 6509/96 after 21 days by micromethod; type: functional; conditions: 6509/96, 504 h
[36] = system: Staphylococcus aureus; experiment: Antibacterial activity against Staphylococcus aureus ATCC 6538 after 24 hrs by broth microdilution method; type: functional; conditions: ATCC 6538, 24 h
[37] = system: Staphylococcus aureus; experiment: Antibacterial activity against Staphylococcus aureus ATCC 6538 after 48 hrs by broth microdilution method; type: functional; conditions: ATCC 6538, 48 h
[38] = system: Staphylococcus aureus; experiment: Antibacterial activity against methicillin-resistant Staphylococcus aureus H 5996/08 after 24 hrs by broth microdilution method; type: functional; conditions: H 5996/08, 24 h
[39] = system: Staphylococcus aureus; experiment: Antibacterial activity against methicillin-resistant Staphylococcus aureus H 5996/08 after 48 hrs by broth microdilution method; type: functional; conditions: H 5996/08, 48 h
[40] = system: Staphylococcus epidermidis; experiment: Antibacterial activity against Staphylococcus epidermidis H 6966/08 after 24 hrs by broth microdilution method; type: functional; conditions: H 6966/08, 24 h
[41] = system: Staphylococcus epidermidis; experiment: Antibacterial activity against Staphylococcus epidermidis H 6966/08 after 48 hrs by broth microdilution method; type: functional; conditions: H 6966/08, 48 h
[42] = system: Enterococcus faecalis; experiment: Antibacterial activity against Enterococcus faecalis J 14365/08 after 24 hrs by broth microdilution method; type: functional; conditions: J 14365/08, 24 h
[43] = system: Enterococcus faecalis; experiment: Antibacterial activity against Enterococcus faecalis J 14365/08 after 48 hrs by broth microdilution method; type: functional; conditions: J 14365/08, 48 h
[44] = system: Escherichia coli; experiment: Antibacterial activity against Escherichia coli ATCC 8739 after 24 hrs by broth microdilution method; type: functional; conditions: ATCC 8739, ATCC 8739, 24 h
[45] = system: Escherichia coli; experiment: Antibacterial activity against Escherichia coli ATCC 8739 after 48 hrs by broth microdilution method; type: functional; conditions: ATCC 8739, ATCC 8739, 48 h
[46] = system: Klebsiella pneumoniae; experiment: Antibacterial activity against Klebsiella pneumoniae D 11750/08 after 24 hrs by broth microdilution method; type: functional; conditions: D 11750/08, 24 h
[47] = system: Klebsiella pneumoniae; experiment: Antibacterial activity against Klebsiella pneumoniae D 11750/08 after 48 hrs by broth microdilution method; type: functional; conditions: D 11750/08, 48 h
[48] = system: Klebsiella pneumoniae; experiment: Antibacterial activity against extended spectrum beta-lactamase producing Klebsiella pneumoniae J 14368/08 after 24 hrs by broth microdilution method; type: functional; conditions: J 14368/08, 24 h
[49] = system: Klebsiella pneumoniae; experiment: Antibacterial activity against extended spectrum beta-lactamase producing Klebsiella pneumoniae J 14368/08 after 48 hrs by broth microdilution method; type: functional; conditions: J 14368/08, 48 h
[50] = system: Pseudomonas aeruginosa; experiment: Antibacterial activity against Pseudomonas aeruginosa ATCC 9027 after 24 hrs by broth microdilution method; type: functional; conditions: ATCC 9027, 24 h
[51] = system: Mycobacterium tuberculosis; experiment: Antimycobacterial activity against Mycobacterium tuberculosis H37Rv; type: functional

## O=[N+]([O-])c1cc(C[Se]c2nnnn2Cc2ccccc2)cc([N+](=O)[O-])c1
[1]
  IC95: > 500 µM
[2]
  IC80: > 500 µM
[3]
  IC80: > 500 µM
[4]
  IC80: > 500 µM
[5]
  IC80: > 500 µM
[6]
  IC80: > 500 µM
[7]
  IC80: > 500 µM
[8]
  IC80: > 500 µM
[9]
  IC80: > 500 µM
[10]
  IC80: > 500 µM
[11]
  IC80: > 500 µM
[12]
  pIC50: < 3.30
[13]
  pIC50: < 3.30
[14]
  pIC50: < 3.30
[15]
  pIC50: < 3.30
[16]
  pIC50: < 3.30
[17]
  pIC50: < 3.30
[18]
  viability at 48 h, 30 µM: 54%
[19]
  viability at 48 h, 30 µM: 70%
[20]
  viability at 48 h, 30 µM: 33%
[21]
  viability at 48 h, 30 µM: 41%
[22]
  pIC50: < 4.52
[23]
  pIC50: < 4.52
[24]
  pIC50: 4.66
[25]
  pIC50: 4.78
[26]
  MIC: 1 µM (≈ 0.419 µg/mL)
[27]
  MIC: 2 µM (≈ 0.839 µg/mL)
[28]
  MIC: 32 µM (≈ 13.4 µg/mL)
[29]
  MIC: 32 µM (≈ 13.4 µg/mL)
[30]
  MIC: 2 µM (≈ 0.839 µg/mL)
[31]
  MIC: 4 µM (≈ 1.68 µg/mL)
[32]
  MIC: 4 µM (≈ 1.68 µg/mL)
[33]
  MIC: 4 µM (≈ 1.68 µg/mL)
[34]
  MIC: 8 µM (≈ 3.35 µg/mL)
[35]
  MIC: 8 µM (≈ 3.35 µg/mL)
[36]
  IC95: > 500 µM
[37]
  IC95: > 500 µM
[38]
  IC95: > 500 µM
[39]
  IC95: > 500 µM
[40]
  IC95: > 500 µM
[41]
  IC95: > 500 µM
[42]
  IC95: > 500 µM
[43]
  IC95: > 500 µM
[44]
  IC95: > 500 µM
[45]
  IC95: > 500 µM
[46]
  IC95: > 500 µM
[47]
  IC95: > 500 µM
[48]
  IC95: > 500 µM
[49]
  IC95: > 500 µM
[50]
  IC95: > 500 µM

## O=[N+]([O-])c1cn2c(n1)OC[C@@H](OCc1ccc(OC(F)(F)F)cc1)C2 [PRETOMANID]
[51]
  MIC: 0.11 µM (≈ 0.0395 µg/mL)
